Patent US20080269313A1, “Prolyl Oligopeptidase Inhibitors Ameliorating Recovery From Brain Trauma” (ORION CORPORATION, priority 2003, published 2008)

Key:
[1] = test system: male rats with the focal forebrain ischemia; experiment: limb-placing test after focal forebrain ischemia (middle cerebral artery occlusion 90 min); type: in vivo, rat; details: for difference in limb-placing test between JTP-4819 and control groups: ischemic rats vs vehicle control
Method: The effects of JTP-4819 on the recovery in the use of limbs assessed by the limb placing task in male rats with the focal forebrain ischemia.
The experiment was carried out on male Spraque-Dawley rats (about 200 g), bred in B&K, Sweden. The rats were allowed to acclimatized for one week before the start of teaching of behavioural testing and subsequent operation (Table 1). During acclimatization period, the rats were housed in solid bottom Macrolon type III cages with stainless steel mesh lids (at maximum five rats in each cage). The rats had free access to standard certified pelleted food (RM1 Maintenance Expanded SQC; Special Diet Services, Essex, UK) and water. After operation, the rats were housed singly in a Macrolon cage. Some food pellets were put into a cage in order to enable to their feeding. On the second post-operative day and thereafter, the rats were housed (maximum 10 rats in one cage) in the enriched environment (Enriched rat cage system, 03-RS-R, Scanbur A/S, Lellinge, Denmark) where the floor area of one cage was 4250 cm^2. […] Tap water and pelleted food were freely available.
Anesthesia was initiated with 4-5% halothane (30% oxygen, 65% nitrous oxide) and maintained throughout the operation with 0.5-1.5% halothane delivered via a nose cone. Body temperature was maintained at 37.0±0.5° C. using a thermoregulatory heating unit with homeothermic blanket (HB 101/2 RS, Letica Scientific Instruments). Heparin (40 IU, i.v.) was given just before the operation to prevent possible complications caused by blood coagulation. The right common carotid artery was exposed through a midline ventral cervical incision, and carefully separated from the adjacent sympathetic nerves under a stereomicroscope. The common carotid artery and internal carotid artery were then clamped with microvascular clips. The external carotid artery was ligated distally with a nylon suture and the artery was cut for induction of suture. A heparinized nylon suture (Ø0.28 mm, rounded tip) was introduced into the stump of the external carotid artery, the internal carotid artery clip was removed, and the suture was advanced into the internal carotid artery until it passed beyond the origin of the middle cerebral artery. After occlusion for 90 min, the suture was removed to allow reperfusion in the middle cerebral artery territory. The stump of the external carotid artery was electrocoagulated and the common carotid artery clip was removed. The cervical incision was closed with silk sutures after the application of 2% lidocain gel (Xylocaln® 2%, Astra Finland). In sham-operated rats, the right common carotid artery was exposed and the external carotid artery was electrocoagulated without introducing the filament into the internal carotid artery. Animals were given 0.9% NaCl (i.p.) during the first-post-operative days (days 0 and 1). They were housed singly in a Macrolon cage.
JTP-4819 was dissolved in sterile saline. The drug was injected 1 ml/kg intraperitoneally (i.p.). […] On the testing day 2, the drug was injected after the rats were tested in a limb placing test and assigned to groups. On days 3-14, the rats were treated even if they were not tested in a limb placing test Table 1). In those days (6, 8, 10, 12, 13), the rats were injected in the afternoon, about 24 hours after the preceding injection. […]
On the second day after operation, behavioral deficits of rats were assessed by using a limb-placing test (De Ryck et al., 1989). […]

[2] = test system: experimental models of senile dementia; details: Toide et al. 1997; cited from earlier work

## O=C(CO)[C@@H]1CCCN1C(=O)[C@@H]1CCCN1C(=O)NCc1ccccc1 [JTP-4819]
[1]; 1 μmol/kg i.p. daily, from day 5 to day 17 after ischemia
  difference in limb-placing test between JTP-4819 and control groups: significant difference (p<0.05)
[1]; 9 μmol/kg i.p. daily, on day 3 and 9
  difference in limb-placing test between JTP-4819 and control groups: significant difference (p<0.05)
[1]; 0.9 or 9.0 μmol/kg intraperitoneally, especially the lower dose, day 5-17
  recovery in limb-placing score as compared to vehicle treated rats (FIG. 1): augmented recovery
[1]; daily systemic administration started after unilateral focal forebrain ischemia, rats
  recovery in the use of limbs: enhanced the recovery in the use of limbs
[1]; lower dose of JTP-4819 (1 μmol/kg i.p.), after treatment days 2-14
  limb-placing test effect after the discontinuation of drug administration: amelioration effect also was seen
[2]
  cognition effects: cognition improving effects
